In ChEMBL document CHEMBL3046906, “Effects of acibenzolar-S-methyl on the suppression of Fusarium wilt of cyclamen” (Crop Prot, 2006):
Active and inactive are the calls of the source. The rule behind the calls is not given here.

What was measured:
Cyclamen persicum [1] = assay: Phytotoxicity in Cyclamen persicum seedlings assessed as decrease in effect on flower quality at 10 to 50 ug a.i/ml applied as spray; format: organism-based; details: in vivo, other
Cyclamen persicum [2] = assay: Phytotoxicity in Cyclamen persicum seedlings assessed as decrease in effect on flower number at 10 to 50 ug a.i/ml applied as spray; format: organism-based; details: in vivo, other
Cyclamen persicum [3] = assay: Phytotoxicity in Cyclamen persicum seedlings assessed as decrease in foliar dry mass at 10 to 50 ug a.i/ml applied as spray; format: organism-based; parameters: scale not given: the % may be the effect or the level left; details: in vivo, other
[4] = test system: Fusarium oxysporum f. sp. cyclaminis; assay: Antifungal activity against Fusarium oxysporum f. sp. cyclaminis infested cyclamen seedlings assessed as increase in foliar dry mass at 10 to 50 ug a.i/ml applied as spray; format: functional, organism-based
Cyclamen persicum [5] = assay: Phytotoxicity in Cyclamen persicum seedlings assessed as decrease in foliar dry mass at 50 ug a.i/ml applied as spray; format: organism-based; parameters: scale not given: the % may be the effect or the level left; details: in vivo, other
[6] = test system: Fusarium oxysporum f. sp. cyclaminis; assay: Antifungal activity against 1 CFU of Fusarium oxysporum f. sp. cyclaminis infested cyclamen seedlings assessed as increase in foliar dry mass at 50 ug a.i/ml applied as spray relative to untreated control; format: functional, organism-based
[7] = test system: Fusarium oxysporum f. sp. cyclaminis; assay: Antifungal activity against […] of Fusarium oxysporum f. sp. cyclaminis infested cyclamen seedlings assessed as delay in development of disease symptoms at 50 ug a.i/ml applied as spray relative to untreated control; format: functional, organism-based
[8] = test system: Fusarium oxysporum f. sp. cyclaminis; assay: Antifungal activity against 1 CFU of Fusarium oxysporum f. sp. cyclaminis infested cyclamen seedlings assessed as delay in development of decrease severity at 50 ug a.i/ml applied as spray; format: functional, organism-based
Cyclamen persicum [9] = assay: Phytotoxicity in Cyclamen persicum seedlings assessed as visible damage on leaves at 10 to 50 ug a.i/ml applied as spray; format: organism-based; details: in vivo, topical_or_ocular
[10] = test system: Fusarium oxysporum f. sp. cyclaminis; assay: Antifungal activity against Fusarium oxysporum f. sp. cyclaminis infested cyclamen seedlings assessed as delay in development of disease symptoms at 50 ug a.i/ml applied as spray; format: functional

Question: For `CSC(=O)c1cccc2nnsc12` [ACIBENZOLAR-S-METHYL], which Activity (Cyclamen persicum [1]) is on record?
Answer: Non-toxic

Question: What about the Activity (Cyclamen persicum [2]) of the same compound?
Answer: Non-toxic

Question: What about the Activity (Cyclamen persicum [3]) of the same compound?
Answer: 36%

Question: What about the Activity [4] of the same compound?
Answer: Active

Question: What about the Activity (Cyclamen persicum [5]) of the same compound?
Answer: 65%

Question: And the Activity [6]?
Answer: Active

Question: What about the Activity [7] of the same compound?
Answer: Active

Question: And the Activity [8]?
Answer: Active

Question: What about the Activity (Cyclamen persicum [9]) of the same compound?
Answer: Non-toxic

Question: And the Time [10]?
Answer: 20 days
